From patent publication US10676508B2, “DEPDC1-derived peptide and vaccine containing same” (OncoTherapy Science, Inc., priority 2015, dated 2020) come the findings set out here.

For one experiment, the system named is peptide-pulsed C1R-A11. Briefly: In vitro CTL induction, IFN-gamma ELISPOT assay (HLA-A*1101). It counts as cell-based, human. The conditions noted are these: CTLs from HLA-A*1101-positive donors, DCs pulsed with 20 micro-g/ml peptide, day 21, versus unpulsed C1R-A11. The text has this:
Monocyte-derived dendritic cells (DCs) were used as the antigen-presenting cell to induce a cytotoxic T lymphocyte (CTL) response against peptides presented on human leukocyte antigens (HLAs). As described in the other sections, DCs were generated in vitro (Nakahara S et al., Cancer Res 2003, 63(14): 4112-8). Specifically, peripheral-blood mononuclear cells isolated from healthy volunteers (HLA-A*1101-positive) with the Ficoll-Paque plus solution (Pharmacia) were separated by attaching to plastic tissue culture dishes (Becton Dickinson) and concentrated as a monocyte fraction. The monocyte-concentrated population was cultured in the presence of 1000 IU/ml granulocyte macrophage colony-stimulating factor (R&D System) and 1000 IU/ml interleukin (IL)-4 (R&D System) in an AIM-V medium (Invitrogen) containing 2% heat-inactivated autologous serum (AS). After seven days of culturing, the cytokine-induced DCs were pulsed with 20 micro-g/ml each of the synthesized peptides in an AIM-V medium at 37 degrees C. for three hours in the presence of 3 micro-g/ml beta 2-microglobulin.
Next, these peptide-pulsed DCs were inactivated by X-ray irradiation (20 Gy), and mixed in a 1:20 ratio with autologous CD8^+ T cells obtained by positive selection using the CD8 Positive Isolation Kit (Dynal). These culture products were seeded in a 48-well plate (Corning). […]
As for “ATINKRLCK (a peptide derived from DEPDC1) [SEQ ID NO: 2]”, the “peptide-specific CTL activity (IFN-gamma production, ELISPOT)” value (shortened to “peptide-specific CTL activity”) is reported as “specific IFN-gamma production was not observed”.

For a further experiment, the system named is peptide-pulsed C1R-A01 cells. Briefly: In vitro CTL induction, IFN-gamma ELISPOT assay (HLA-A*0101). It counts as cell-based, human. The following applies: CTLs from HLA-A*0101-positive donors, DCs pulsed with 20 micro-g/ml peptide, day 21, versus unpulsed C1R-A01. An excerpt: Monocyte-derived dendritic cells (DCs) were used as the antigen-presenting cell to induce a cytotoxic T lymphocyte (CTL) response against peptides presented on human leukocyte antigens (HLAs). As described in the other sections, DCs were generated in vitro (Nakahara S et al., Cancer Res 2003, 63(14): 4112-8). Specifically, peripheral-blood mononuclear cells isolated from healthy volunteers (HLA-A*0101-positive) with the Ficoll-Paque plus solution (Pharmacia) were separated by attaching to plastic tissue culture dishes (Becton Dickinson) and concentrated as a monocyte fraction. The monocyte-concentrated population was cultured in the presence of 1000 IU/ml granulocyte macrophage colony-stimulating factor (R&D System) and 1000 IU/ml interleukin (IL)-4 (R&D System) in an AIM-V medium (Invitrogen) containing 2% heat-inactivated autologous serum (AS). After seven days of culturing, the cytokine-induced DCs were pulsed with 20 micro-g/ml each of the synthesized peptides in an AIM-V medium at 37 degrees C. for three hours in the presence of 3 micro-g/ml beta 2-microglobulin. Next, these peptide-pulsed DCs were inactivated by X-ray irradiation (20 Gy), and mixed in a 1:20 ratio with autologous CD8^+ T cells obtained by positive selection using the CD8 Positive Isolation Kit (Dynal). These culture products were seeded in a 48-well plate (Corning). Each well was made to contain 1.5×10^4 peptide-pulsed DCs, 3×10^5 CD8^+ T cells and 10 ng/ml IL-7 (R&D System) in 0.5 ml of the AIM-V/2% AS medium. Three days later, these culture products were added with a final concentration of 20 IU/ml IL-2 (CHIRON). On day 7 and day 14, T cells were further stimulated with peptide-pulsed autologous DCs. The DCs were prepared every time by the same method as above. On day 21, after the third peptide stimulation, CTL activities were examined against the peptide-pulsed C1R-A01 cells (Tanaka H et al., Br J Cancer 2001, 84(1): 94-9; Umano Y et al., Br J Cancer 2001, 84(8): 1052-7; Uchida N et al., Clin Cancer Res 2004, 10(24): 8577-86; Suda T et al., Cancer Sci 2006, 97(5): 411-9; Watanabe T et al., Cancer Sci 2005, 96(8): 498-506).
To examine specific CTL activity, an IFN-gamma ELISPOT assay and an IFN-gamma ELISA were performed. Specifically, peptide-pulsed C1R-A01 cells (1×10^4 cells/well) were prepared as the stimulator cell. The induced CTLs, i.e., CTL lines and CTL clones, were used as the responder cell. The IFN-gamma ELISPOT assay and IFN-gamma ELISA were performed according to the manufacturer's manual.
For “AGEAVDWLY (a peptide derived from DEPDC1) [SEQ ID NO: 82]”, the “peptide-specific CTL activity” value was “potent IFN-gamma production”. On the same count and under the same terms, in the case of “ESQGVPPGPY (a peptide derived from DEPDC1) [SEQ ID NO: 91]” it was “potent IFN-gamma production”; in that of “EVWRYVILIY (a peptide derived from DEPDC1) [SEQ ID NO: 99]”, “potent IFN-gamma production”; in that of “FLESKPKQEF (a peptide derived from DEPDC1) [SEQ ID NO: 102]”, “potent IFN-gamma production”.

Take “FQKEYPLIY (a peptide derived from DEPDC1) [SEQ ID NO: 87]”: the “peptide-specific CTL activity” value is on record as “potent IFN-gamma production”. Same read-out and setting: the entry for “HQEILQVPSY (a peptide derived from DEPDC1) [SEQ ID NO: 103]” is “potent IFN-gamma production”. Still for that read-out and setting: the entry for “HSEENIQKPF (a peptide derived from DEPDC1) [SEQ ID NO: 101]” is “potent IFN-gamma production”. Same read-out and setting: the entry for “KSDDLPHWV (a peptide derived from DEPDC1) [SEQ ID NO: 81]” is “potent IFN-gamma production”; for “LFAPLPTYSY (a peptide derived from DEPDC1) [SEQ ID NO: 96]” it is “potent IFN-gamma production”. With “LPEPLLTFEY (a peptide derived from DEPDC1) [SEQ ID NO: 107]”, the “peptide-specific CTL activity” value is recorded as “potent IFN-gamma production”. For the sequence “LSENSLLPA (a peptide derived from DEPDC1) [SEQ ID NO: 84]”, the “peptide-specific CTL activity” value is “potent IFN-gamma production”. Consider “LTFEYYELF (a peptide derived from DEPDC1) [SEQ ID NO: 88]”, for which the “peptide-specific CTL activity” value was “potent IFN-gamma production”.

Regarding “NVDDNNQLF (a peptide derived from DEPDC1) [SEQ ID NO: 85]”, the “peptide-specific CTL activity” value is on record as “potent IFN-gamma production”. The same measure, in the same setting: in the case of “PTTESEAALF (a peptide derived from DEPDC1) [SEQ ID NO: 94]” it was “specific IFN-gamma production was not observed”; in that of “QEDVEEVWRY (a peptide derived from DEPDC1) [SEQ ID NO: 106]”, “potent IFN-gamma production”. Same read-out and setting: in the case of “QTAVEKHLDY (a peptide derived from DEPDC1) [SEQ ID NO: 90]” it was “potent IFN-gamma production”. Same read-out and setting: in the case of “RSNDMNNPTY (a peptide derived from DEPDC1) [SEQ ID NO: 58]” it was “potent IFN-gamma production”; in that of “RSSTRRNSY (a peptide derived from DEPDC1) [SEQ ID NO: 21]”, “potent IFN-gamma production”. As to “SNDMNNPTY (a peptide derived from DEPDC1) [SEQ ID NO: 86]”, the “peptide-specific CTL activity” value is given as “potent IFN-gamma production”. Still for that read-out and setting: in the case of “STECLLLSLL (a peptide derived from DEPDC1) [SEQ ID NO: 104]” it was “potent IFN-gamma production”; in that of “TAGEAVDWLY (a peptide derived from DEPDC1) [SEQ ID NO: 92]”, “potent IFN-gamma production”; in that of “TTESEAALF (a peptide derived from DEPDC1) [SEQ ID NO: 83]”, “potent IFN-gamma production”. Still for that read-out and setting: the entry for “VSDRSSGIH (a peptide derived from DEPDC1) [SEQ ID NO: 89]” is “potent IFN-gamma production”.
